# From patent US20120202690A1, “HERBICIDAL COMPOUNDS” (SYNGENTA LIMITED, priority 2009, published 2012)
# How the values were obtained:
# Assay type in all cases: in vivo
# Solanum nigrum (SOLNI) [1] = assay: Post-emergence biological efficacy, glasshouse, 500 or 1000 g/ha, evaluated after 13 days (100=total damage to plant; 0=no damage to plant); conditions: Solanum nigrum, 312 h, read-out: Percentage damage caused to weed species, post-emergence, SOLNI; for pest or weed control at 1000 g/ha: rate 1,000 g/ha
# Procedure: (§1) Seeds of Alopecurus myosuroides (ALOMY), Setaria faberi (SETFA), Echinochloa […]), Solanum nigrum (SOLNI), Amaranthus retroflexus (AMARE) and Ipomoea hederaceae (IPOHE) were sown in standard soil in pots. […] The test plants were then grown on under controlled conditions in a glasshouse (at 24/16° C., day/night; 14 hours light; 65% humidity) and watered twice daily. […]
# [2] = tested on: Amaranthus retroflexus (AMARE); assay: as above; conditions: Amaranthus retroflexus, 312 h, read-out: Percentage damage caused to weed species, post-emergence, AMARE; for pest or weed control at 1000 g/ha: rate 1,000 g/ha
# Procedure: as §1
# [3] = tested on: Alopecurus myosuroides (ALOMY); assay: as above; conditions: Alopecurus myosuroides, 312 h, read-out: Percentage damage caused to weed species, post-emergence, ALOMY; for pest or weed control at 1000 g/ha: rate 1,000 g/ha
# Procedure: as §1
# [4] = tested on: Echinochloa crusgaffi (ECHCG); assay: as above; conditions: Echinochloa, 312 h, read-out: Percentage damage caused to weed species, post-emergence, ECHCG; for pest or weed control at 1000 g/ha: rate 1,000 g/ha
# Procedure: as §1
# Setaria faberi (SETFA) [5] = assay: as above; conditions: Setaria faberi, 312 h, read-out: Percentage damage caused to weed species, post-emergence, SETFA; for pest or weed control at 1000 g/ha: rate 1,000 g/ha
# Procedure: as §1
# [6] = tested on: Ipomoea hederaceae (IPOHE); assay: as above; conditions: Ipomoea, 312 h, read-out: Percentage damage caused to weed species, post-emergence, IPOHE; for pest or weed control at 1000 g/ha: rate 1,000 g/ha
# Procedure: as §1
# [7] = tested on: Echinochloa crus-galli (ECHCG); assay: Pre-emergence biological efficacy, glasshouse, 1000 g/ha, evaluated after 13 days (100=total damage to plant; 0=no damage to plant); conditions: Echinochloa crus-galli, 312 h, read-out: Percentage damage caused to weed species, pre-emergence, ECHCG; for pest or weed control at 1000 g/ha: rate 1,000 g/ha
# Procedure: (§2) Seeds of Alopecurus myosuroides (ALOMY), Setaria faberi (SETFA), Echinochloa crus-galli (ECHCG), Solanum nigrum (SOLNI), Amaranthus retroflexus (AMARE) and Ipomoea hederaceae (IPOHE) were sown in standard soil in pots. […] The test plants were then grown under controlled conditions in the glasshouse (at 24/16° C., day/night; 14 hours light; 65% humidity) and watered twice daily. […]
# Solanum nigrum (SOLNI) [8] = assay: as above; conditions: Solanum nigrum, 312 h, read-out: Percentage damage caused to weed species, pre-emergence, SOLNI; for pest or weed control at 1000 g/ha: rate 1,000 g/ha
# Procedure: as §2
# [9] = tested on: Amaranthus retroflexus (AMARE); assay: as above; conditions: Amaranthus retroflexus, 312 h, read-out: Percentage damage caused to weed species, pre-emergence, AMARE; for pest or weed control at 1000 g/ha: rate 1,000 g/ha
# Procedure: as §2
# [10] = tested on: Alopecurus myosuroides (ALOMY); assay: as above; conditions: Alopecurus myosuroides, 312 h, read-out: Percentage damage caused to weed species, pre-emergence, ALOMY; for pest or weed control at 1000 g/ha: rate 1,000 g/ha
# Procedure: as §2
# Setaria faberi (SETFA) [11] = assay: as above; conditions: Setaria faberi, 312 h, read-out: Percentage damage caused to weed species, pre-emergence, SETFA; for pest or weed control at 1000 g/ha: rate 1,000 g/ha
# Procedure: as §2
# [12] = tested on: Ipomoea hederaceae (IPOHE); assay: as above; conditions: Ipomoea, 312 h, read-out: Percentage damage caused to weed species, pre-emergence, IPOHE; for pest or weed control at 1000 g/ha: rate 1,000 g/ha
# Procedure: as §2
Compound,pest or weed control at 1000 g/ha (Solanum nigrum (SOLNI) [1]) [%],pest or weed control at 1000 g/ha [2] [%],pest or weed control at 1000 g/ha [3] [%],pest or weed control at 1000 g/ha [4] [%],pest or weed control at 1000 g/ha (Setaria faberi (SETFA) [5]) [%],pest or weed control at 1000 g/ha [6] [%],pest or weed control at 1000 g/ha [7] [%],pest or weed control at 1000 g/ha (Solanum nigrum (SOLNI) [8]) [%],pest or weed control at 1000 g/ha [9] [%],pest or weed control at 1000 g/ha [10] [%],pest or weed control at 1000 g/ha (Setaria faberi (SETFA) [11]) [%],pest or weed control at 1000 g/ha [12] [%],other results
"COC(=O)c1nc(-c2ccc(Cl)c(OC)c2F)nc2[nH]c(C)cc12 [Compound 1-66, 2-(4-chloro-2-fluoro-3-methoxyphenyl)-4-methoxycarbonyl-6-methyl-7H-pyrrolo[2,3-d]pyrimidine]",100,100,80,80,80,80,40,100,100,20,70,90,–
"COc1c(Cl)ccc(-c2cc3[nH]cc(C)c3c(C(=O)OCc3ccco3)n2)c1F [Compound 22-87, 6-(4-Chloro-2-fluoro-3-methoxyphenyl)-4-(2-furanyl-methoxycarbonyl)-3-methyl-1H-pyrrolo[3,2-c]pyridine]",90,80,20,10,40,70,10,70,20,10,10,80,–
"Cc1c[nH]c2nc(C3CC3)nc(C(=O)O)c12 [Compound 1-3, 4-Carboxy-2-cyclopropyl-5-methyl-7H-pyrrolo[2,3-d]pyrimidine]",80,100,0,0,0,50,0,20,50,0,10,100,–
"COCCOCCOC(=O)c1nc(-c2ccc(Cl)c(OC)c2F)nc2[nH]cc(C)c12 [Compound 1-85, 2-(4-Chloro-2-fluoro-3-methoxyphenyl)-4-{2-[(2-methoxy)-ethoxy]-ethoxycarbonyl}-5-methyl-7H-pyrrolo[2,3-d]pyrimidine]",90,100,10,60,40,40,0,70,100,20,0,10,–
"COC(=O)c1nc(-c2ccc(Cl)c(F)c2)nc2c1ccn2Cc1ccccc1 [Compound 6-18, 2-(4-Chloro-3-fluorophenyl)-4-methoxycarbonyl-7-phenylmethyl-7H-pyrrolo[2,3-d]pyrimidine]",40,0,0,0,0,20,0,0,0,0,0,0,–
"COC(=O)c1nc(-c2ccc(Cl)c(OC)c2F)nc2c1c(C)cn2C(=O)OC [Compound 17-64, 2-(4-Chloro-2-fluoro-3-methoxyphenyl)-4,7-di(methoxycarbonyl)-5-methyl-7H-pyrrolo[2,3-d]pyrimidine]",20,0,0,0,0,0,0,0,0,0,0,0,–
"COC(=O)c1nc(-c2ccc(Cl)c(F)c2)nc2[nH]c(C)cc12 [Compound 1-22, 2-(4-Chloro-3-fluorophenyl)-4-methoxycarbonyl-6-methyl-7H-pyrrolo[2,3-d]pyrimidine]",30,20,10,0,10,40,0,0,0,0,0,0,–
"C=C1c2c(nc(-c3ccc(Cl)c(OC)c3F)nc2C(=O)OC)NCC1(C)C [Compound 71-180, 2-(4-Chloro-2-fluoro-3-methoxyphenyl)-6,6-dimethyl-4-methoxycarbonyl-5-methylene-5,6,7,8-tetrahydro-pyrido[2,3-d]pyrimidine]",–,–,–,–,–,–,–,–,–,–,–,–,pest or weed control at 500 g/ha (Solanum nigrum (SOLNI) [1]; rate 500 g/ha): 20%; pest or weed control at 500 g/ha ([2]; rate 500 g/ha): 0%; pest or weed control at 500 g/ha ([3]; rate 500 g/ha): 0%; pest or weed control at 500 g/ha ([4]; rate 500 g/ha): 0%; pest or weed control at 500 g/ha (Setaria faberi (SETFA) [5]; rate 500 g/ha): 0%; pest or weed control at 500 g/ha ([6]; rate 500 g/ha): 40%; pest or weed control at 500 g/ha ([7]; rate 500 g/ha): 0%; pest or weed control at 500 g/ha (Solanum nigrum (SOLNI) [8]; rate 500 g/ha): 0%; pest or weed control at 500 g/ha ([9]; rate 500 g/ha): 0%; pest or weed control at 500 g/ha ([10]; rate 500 g/ha): 0%; pest or weed control at 500 g/ha (Setaria faberi (SETFA) [11]; rate 500 g/ha): 0%; pest or weed control at 500 g/ha ([12]; rate 500 g/ha): 0%
"COC(=O)c1nc(-c2ccc(Cl)c(F)c2)nc2c1ccn2Cc1ccco1 [Compound 11-18, 2-(4-Chloro-3-fluorophenyl)-7-(2-furanyl-methyl)-4-methoxycarbonyl-7H-pyrrolo[2,3-d]pyrimidine]",50,0,0,0,0,20,0,0,0,0,0,0,–
"CCCCOCC(C)OC(=O)c1nc(-c2ccc(Cl)c(OC)c2F)nc2[nH]cc(C)c12 (stereo not drawn) [Compound 1-84, 4-[(1-n-Butoxy)-prop-2-yloxycarbonyl]-2-(4-chloro-2-fluoro-3-methoxyphenyl)-5-methyl-7H-pyrrolo[2,3-d]pyrimidne]",70,60,10,0,10,40,10,40,20,10,10,70,–
